# Measurements from patent publication US5861263A, “Preparation of preserved entamoeba histolytica antigens without enzymatic inhibitors and their use in immunological methods” (Universidad Autonoma De Nuevo Leon, priority 1992, dated 1999).
# Test system: proteases of Entamoeba histolytica crude extract
# Experiment: Inhibition of crude amebic extract proteolytic activity (hide powder azure)
# Type: biochemical, Entamoeba histolytica HK-9
# Settings: 4 mM iodoacetamide
# Experimental: The second method was carried out according to Rinderknecht et al., Clinica Chimica Acta., 21: 197-203 (1968). The activity corresponding to 6 million trophozoites was tested. Crude amebic extracts, IC:M and IC:MC were used. The samples were resuspended in 1.5 ml 0.05M Tris-HCL pH 7.5 containing 0.5% Triton X-100, and incubated for one hour at 4° C. and centrifuged at 11,000×g for 15 minutes. One ml. of the supernatant was added to 1 ml Tris-HCl containing 5 mg hide powder azure and 100 μl .2M cysteine. The samples were incubated at 37° C. for 1 hour and at the end of which the reaction was stopped by putting the tubes in an ice water bath. They were cold-centrifuged for 5 minutes at 450×g. The absorbency of the supernatants were determined at a wavelength of 600 nm. The former treatment was also done with samples that were incubated in the presence of SDS 2% or 2-ME 5% or 4 mM iodoacetamide. The positive control was taken as the activity obtained with 0.23 mg papain, which was activated with 0.7 mM 2-ME in Tris-HCl 0.05M at pH 8.0 at 4° C. for 10 minutes and then at 37° C. for 15 minutes with frequent stirring. Reaction mixtures without extracts were used as the negative control.
smiles,measurement,value
NC(=O)CI [iodoacetamide],inhibition of the activity of the crude extract,approximately 70%
